Test results: ChEMBL document CHEMBL3045969, “Synthesis and evaluation of some new 4-aminopyridine derivatives as a potent antiamnesic and cognition enhancing drugs” (Med Chem Res, 2012)

Legend:
Rattus norvegicus [1] = assay: (§1) Inhibition of AChE in po dosed Charles Foster albino Rattus norvegicus (rat) assessed as hydrolysis of acetylthiocholine iodide per mg of protein in hippocampus administered po qd for 7 days measured 1 hr post last dose on day 7 by spectrophotometry (reference value: 47.50 +/-0.84 moles/min/mg protein); type: functional, organism-based
Rattus norvegicus [2] = assay: as §1, with “prefrontal cortex” for “hippocampus”, “administered” for “administered po”, “45.83 +/-0.94” for “47.50 +/-0.84”; type: functional, organism-based
Rattus norvegicus [3] = assay: (§2) Inhibition of AChE in Charles Foster albino Rattus norvegicus (rat) assessed as hydrolysis of acetylthiocholine iodide per mg of protein in hypothalamus at 10 mg/kg, po qd for 7 days measured 1 hr post last dose on day 7 by spectrophotometry (reference value: […]/mg protein); type: functional
Rattus norvegicus [4] = assay: Inhibition of AChE in Charles Foster albino Rattus norvegicus (rat) assessed as hydrolysis of acetylthiocholine iodide per mg of protein in hippocampus at 10 mg/kg, po qd for 7 days measured 1 hr post last dose on day 7 by spectrophotometry (reference value: […]/mg protein); type: functional
Rattus norvegicus [5] = assay: Inhibition of AChE in Charles Foster albino Rattus norvegicus (rat) assessed as hydrolysis of acetylthiocholine iodide per mg of protein in prefrontal cortex at 10 mg/kg, po qd for 7 days measured 1 hr post last dose on day 7 by spectrophotometry (reference value: […]/mg protein); type: functional
Rattus norvegicus [6] = assay: as §2, with “AChE in po dosed Charles Foster” for “AChE in Charles Foster”, “in hypothalamus administered qd for” for “in hypothalamus at 10 mg/kg, po qd for”; type: functional, organism-based
Rattus norvegicus [7] = assay: Inhibition of AChE in Charles Foster albino Rattus norvegicus (rat) assessed as hydrolysis of acetylthiocholine iodide per mg of protein in hypothalamus at 5 mg/kg, po qd for 7 days measured 1 hr post last dose on day 7 by spectrophotometry (reference value: […]/mg protein); type: functional
Rattus norvegicus [8] = assay: Inhibition of AChE in Charles Foster albino Rattus norvegicus (rat) assessed as hydrolysis of acetylthiocholine iodide per mg of protein in hippocampus at 5 mg/kg, po qd for 7 days measured 1 hr post last dose on day 7 by spectrophotometry (reference value: […]/mg protein); type: functional
Rattus norvegicus [9] = assay: Inhibition of AChE in Charles Foster albino Rattus norvegicus (rat) assessed as hydrolysis of acetylthiocholine iodide per mg of protein in prefrontal cortex at 5 mg/kg, po qd for 7 days measured 1 hr post last dose on day 7 by spectrophotometry (reference value: […]/mg protein); type: functional
Rattus norvegicus [10] = assay: Antiamnesic activity in po dosed scopolamine-induced amnesia Charles Foster albino Rattus norvegicus (rat) model assessed as transfer latency time administered once daily for 8 days measured 1 hr post last dose on day 8 by elevated plus maze test; type: functional, organism-based
Rattus norvegicus [11] = assay: Acute toxicity in Charles Foster albino Rattus norvegicus (rat) assessed as mortality at >35 mg/kg of body weight, po measured up to 24 hr; type: organism-based; conditions: in vivo
Rattus norvegicus [12] = assay: Antiamnesic activity in scopolamine-induced amnesia Charles Foster albino Rattus norvegicus (rat) model assessed as transfer latency time at 10 mg/kg, po qd for 8 days measured 1 hr post last dose on day 8 by elevated plus maze test; type: functional
Rattus norvegicus [13] = assay: Antiamnesic activity in scopolamine-induced amnesia Charles Foster albino Rattus norvegicus (rat) model assessed as transfer latency time at 5 mg/kg, po qd for 8 days measured 1 hr post last dose on day 8 by elevated plus maze test; type: functional
Rattus norvegicus [14] = assay: Cognition enhancing activity in Charles Foster albino Rattus norvegicus (rat) assessed as transfer latency time at 10 mg/kg, po qd for 8 days measured 1 hr post last dose on day 8 by elevated plus maze test; type: functional
Rattus norvegicus [15] = assay: Antiamnesic activity in scopolamine-induced amnesia Charles Foster albino Rattus norvegicus (rat) model assessed as transfer latency time at 10 mg/kg, po qd for 7 days measured 1 hr post last dose on day 7 by elevated plus maze test; type: functional
Rattus norvegicus [16] = assay: Antiamnesic activity in scopolamine-induced amnesia Charles Foster albino Rattus norvegicus (rat) model assessed as transfer latency time at 5 mg/kg, po qd for 7 days measured 1 hr post last dose on day 7 by elevated plus maze test; type: functional
Rattus norvegicus [17] = assay: Cognition enhancing activity in Charles Foster albino Rattus norvegicus (rat) assessed as transfer latency time at 10 mg/kg, po qd for 7 days measured 1 hr post last dose on day 7 by elevated plus maze test; type: functional
Rattus norvegicus [18] = assay: Cognition enhancing activity in Charles Foster albino Rattus norvegicus (rat) assessed as transfer latency time at 5 mg/kg, po qd for 7 days measured 1 hr post last dose on day 7 by elevated plus maze test; type: functional
Rattus norvegicus [19] = assay: Cognition enhancing activity in Charles Foster albino Rattus norvegicus (rat) assessed as transfer latency time at 5 mg/kg, po qd for 8 days measured 1 hr post last dose on day 8 by elevated plus maze test; type: functional
Rattus norvegicus [20] = assay: Antiamnesic activity in scopolamine-induced amnesia Charles Foster albino Rattus norvegicus (rat) model assessed as transfer latency time at 200 mg/kg, ip ip for 2 days measured 1 hr post last dose on day 2 by elevated plus maze test; type: functional; conditions: route intraperitoneal
Rattus norvegicus [21] = assay: Cognition enhancing activity in Charles Foster albino Rattus norvegicus (rat) assessed as transfer latency time at 200 mg/kg, ip for 2 days measured 1 hr post last dose on day 2 by elevated plus maze test; type: functional; conditions: route intraperitoneal
Rattus norvegicus [22] = assay: Antiamnesic activity in scopolamine-induced amnesia Charles Foster albino Rattus norvegicus (rat) model assessed as transfer latency time at 200 mg/kg, ip measured after 30 min by elevated plus maze test; type: functional; conditions: route intraperitoneal
Rattus norvegicus [23] = assay: Cognition enhancing activity in Charles Foster albino Rattus norvegicus (rat) at 200 mg/kg, ip measured 30 min post dose by elevated plus maze test; type: functional; conditions: route intraperitoneal

Row | SMILES | inhibition (Rattus norvegicus [1]) | inhibition (Rattus norvegicus [2]) | Activity (Rattus norvegicus [3]) [nmol/min] | Activity (Rattus norvegicus [4]) [nmol/min] | Activity (Rattus norvegicus [5]) [nmol/min] | inhibition (Rattus norvegicus [6]) | Activity (Rattus norvegicus [7]) [nmol/min] | Activity (Rattus norvegicus [8]) [nmol/min] | Activity (Rattus norvegicus [9]) [nmol/min] | Activity (Rattus norvegicus [10]) | Activity (Rattus norvegicus [11]) | Time (Rattus norvegicus [12]) [s] | Time (Rattus norvegicus [13]) [s] | Time (Rattus norvegicus [14]) [s] | Time (Rattus norvegicus [15]) [s] | Time (Rattus norvegicus [16]) [s] | Time (Rattus norvegicus [17]) [s] | Time (Rattus norvegicus [18]) [s] | Time (Rattus norvegicus [19]) [s] | further results
1 | Oc1ccccc1/C=N\c1ccncc1 | Dose-dependent effect | Dose-dependent effect | 30.5 | 36.83 | 33 | Dose-dependent effect | 34.33 | 41.83 | 37.5 | Dose-dependent effect | Non-toxic | 42.5 | 50.17 | 42.5 | 48.17 | 53.5 | 52.17 | 59.83 | 50.17 | –
2 | COc1ccc(/C=N\c2ccncc2)cc1 | Dose-dependent effect | Dose-dependent effect | 30.83 | 36.5 | 31 | Dose-dependent effect | 35.67 | 41.5 | 36 | Dose-dependent effect | Non-toxic | 43.17 | 50.83 | 46.33 | 48.67 | 52 | 52.67 | 57.83 | 49.5 | –
3 | NC(=O)CN1CCCC1=O [PIRACETAM] | – | – | – | – | – | – | – | – | – | – | – | – | – | – | – | – | – | – | – | Time (Rattus norvegicus [20]): 43.33 s; Time (Rattus norvegicus [21]): 45.67 s; Time (Rattus norvegicus [22]): 47 s; Time (Rattus norvegicus [23]): 49.5 s
4 | c1ccc(C(=Nc2ccncc2)c2ccccc2)cc1 | Dose-dependent effect | Dose-dependent effect | 29.67 | 37.5 | 32.83 | Dose-dependent effect | 34.67 | 42.17 | 37 | Dose-dependent effect | Non-toxic | 41.17 | 41.83 | 40.17 | 45.67 | 46.83 | 46.83 | 49.17 | 44 | –
5 | C(=N/c1ccncc1)/c1ccccc1 | Dose-dependent effect | Dose-dependent effect | 35.5 | 36.83 | 33.83 | Dose-dependent effect | 29.33 | 43.83 | 39 | Dose-dependent effect | Non-toxic | 42.67 | 51.5 | 47.17 | 48.83 | 53.83 | 52.5 | 59.67 | 51.83 | –
6 | Oc1ccc(/C=N\c2ccncc2)c(O)c1 | Dose-dependent effect | Dose-dependent effect | 30 | 34.83 | 30.5 | Dose-dependent effect | 34.5 | 42.83 | 41 | Dose-dependent effect | Non-toxic | 43 | 51.67 | 48.67 | 46.5 | 51.67 | 52.5 | 60.33 | 51.17 | –
7 | COc1ccc(/C=N\c2ccncc2)cc1OC | Dose-dependent effect | Dose-dependent effect | 30.5 | 35.83 | 33.17 | Dose-dependent effect | 35.5 | 41.17 | 36.5 | Dose-dependent effect | Non-toxic | 42.5 | 50.67 | 47.5 | 48.5 | 53.83 | 53 | 58 | 50.33 | –
8 | C/C(=N/c1ccncc1)c1ccc(O)cc1 | Dose-dependent effect | Dose-dependent effect | 29.67 | 36.5 | 33 | Dose-dependent effect | 35.17 | 40.5 | 39.33 | Dose-dependent effect | Non-toxic | 41.67 | 50.67 | 46.83 | 47 | 53.17 | 50.83 | 59.83 | 56.17 | –
